Like-named read-outs stand apart in the source and are kept apart here. Where a SMILES comes first, the peptide text is derived from it. [ ]: non-standard residue; d: D form. Nle = CCCC[C@H](N)C(=O)O; Abu = CC[C@H](N)C(=O)O
Target: botox A (Clostridium botulinum, UniProt P0DPI1)
Type: biochemical
Set-up: Rate (initial rate of peptide hydrolysis) / Rate (initial rate of hydrolysis) In AcBSA: unit not given here
Settings: for kcat: in 1/s

Sequence of botox A (P0DPI1 2-448 limits assumed): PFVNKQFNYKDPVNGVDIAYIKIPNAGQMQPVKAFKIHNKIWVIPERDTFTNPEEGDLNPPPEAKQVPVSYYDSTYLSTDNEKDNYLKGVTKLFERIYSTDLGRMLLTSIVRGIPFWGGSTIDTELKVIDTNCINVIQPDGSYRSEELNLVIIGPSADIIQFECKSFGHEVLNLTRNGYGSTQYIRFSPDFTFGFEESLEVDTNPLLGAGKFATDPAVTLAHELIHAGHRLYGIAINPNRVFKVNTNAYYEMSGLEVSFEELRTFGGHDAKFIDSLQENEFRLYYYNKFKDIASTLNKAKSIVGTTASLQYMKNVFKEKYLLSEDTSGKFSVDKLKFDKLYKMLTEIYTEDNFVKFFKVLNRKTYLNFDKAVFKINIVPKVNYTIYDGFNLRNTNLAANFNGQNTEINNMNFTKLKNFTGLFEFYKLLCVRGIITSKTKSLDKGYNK

Compound	hydrolysis by botox A, described in words	Relative Rate (initial hydrolysis rates relative to peptide [1-17])	kcat	Km (read-out: Km) [µM]	Kcat In AcBSA [s⁻¹]	Rate (initial rate of hydrolysis) In AcBSA	Rate (initial rate of hydrolysis) In BSA	Rate (initial rate of peptide hydrolysis)	Relative Rate	Km (read-out: Km In AcBSA) [µM]	Kcat In BSA [s⁻¹]	also measured
Ac-TRIDEANQRATKM-NH2 [13-residue peptide]												reduction in rate of botox A-catalyzed hydrolysis: 43%
Ac-SNKTRIDEAQQRATKML-NH2 [N10Q, S N K T R I D E A Q Q R A T K M L]	No hydrolysis											
CC[C@H](NC(=O)[C@H](CCCNC(=N)N)NC(=O)[C@H](CCC(N)=O)NC(=O)[C@H](CC(N)=O)NC(=O)[C@H](C)NC(=O)[C@H](CCC(=O)O)NC(=O)[C@H](CC(=O)O)NC(=O)[C@@H](NC(=O)[C@H](CCCNC(=N)N)NC(=O)[C@@H](NC(=O)[C@H](CCCCN)NC(=O)[C@H](CC(N)=O)NC(=O)[C@H](CO)NC(C)=O)[C@@H](C)O)[C@@H](C)CC)C(=O)N[C@H](C(=O)N[C@@H](CCCCN)C(=O)N[C@@H](CCSC)C(=O)N[C@@H](CC(C)C)C(N)=O)[C@@H](C)O [A13B, S N K T R I D E A N Q R B T K M L] (Ac-SNKTRIDEANQR[Abu]TKML-NH2)		.79	39 ± 2	1800 ± 100								
CCCC[C@H](NC(=O)[C@H](CCCCN)NC(=O)[C@@H](NC(=O)[C@H](C)NC(=O)[C@H](CCCNC(=N)N)NC(=O)[C@H](CCC(N)=O)NC(=O)[C@H](CC(N)=O)NC(=O)[C@H](C)NC(=O)[C@H](CCC(=O)O)NC(=O)[C@H](CC(=O)O)NC(=O)[C@@H](NC(=O)[C@H](CCCNC(=N)N)NC(=O)[C@@H](NC(=O)[C@H](CCCCN)NC(=O)[C@H](CC(N)=O)NC(=O)[C@H](CO)NC(C)=O)[C@@H](C)O)[C@@H](C)CC)[C@@H](C)O)C(=O)N[C@@H](CC(C)C)C(N)=O [M16X, S N K T R I D E A N Q R A T K X L] (Ac-SNKTRIDEANQRATK[Nle]L-NH2)	hydrolyzed somewhat faster than the native-sequence peptide		30 ± 1	580 ± 20								
CC[C@H](NC(=O)[C@H](CCCNC(=N)N)NC(=O)[C@H](CC(N)=O)NC(=O)[C@H](CO)NC(C)=O)C(=O)N[C@@H](CCCNC(=N)N)C(=O)N[C@H](C(=O)N[C@@H](CC(=O)O)C(=O)N[C@@H](CCC(N)=O)C(=O)N[C@@H](C)C(=O)N[C@@H](CC(N)=O)C(=O)N[C@@H](CCC(N)=O)C(=O)N[C@@H](CCCNC(=N)N)C(=O)N[C@@H](C)C(=O)N[C@H](C(=O)N[C@@H](CCCNC(=N)N)C(=O)N[C@@H](CCSC)C(=O)N[C@@H](CC(C)C)C(N)=O)[C@@H](C)O)[C@@H](C)CC [peptide 7, S N R B R I D Q A N Q R A T R M L] (Ac-SNR[Abu]RIDQANQRATRML-NH2)					73	22	14	14.1 ± 0.7	1.9	310		
Ac-SNKTRIDEANARATKML-NH2 [Q11A, S N K T R I D E A N A R A T K M L]	slowed but did not eliminate hydrolysis	0.19										
Ac-SNRTRIDQANQRATRML-NH2 [compound 4, S N R T R I D Q A N Q R A T R M L]					68	19	13	12.6 ± 0.5	1.7	470	64	Km (read-out: Km In BSA): 760 µM
CC[C@H](NC(=O)[C@H](CC(=O)O)NC(=O)[C@@H](NC(=O)[C@H](CCCNC(=N)N)NC(=O)[C@@H](NC(=O)[C@H](CCCNC(=N)N)NC(=O)[C@H](CC(N)=O)NC(=O)[C@H](CO)NC(C)=O)[C@@H](C)O)[C@@H](C)CC)C(=O)N[C@@H](C)C(=O)N[C@@H](CC(N)=O)C(=O)N[C@@H](CCC(N)=O)C(=O)N[C@@H](CCCNC(=N)N)C(=O)N[C@@H](C)C(=O)N[C@H](C(=O)N[C@@H](CCCNC(=N)N)C(=O)N[C@@H](CCSC)C(=O)N[C@@H](CC(C)C)C(N)=O)[C@@H](C)O [peptide 5, S N R T R I D B A N Q R A T R M L] (Ac-SNRTRID[Abu]ANQRATRML-NH2)					70	21	13	12.9 ± 0.3	1.7	330	69	specific activity of type A toxin against the peptide: 21 µmol/min/mg; Km (read-out: Km In BSA): 740 µM
Ac-SNKTRINEANQRATKML-NH2 [D7N, S N K T R I N E A N Q R A T K M L]		0.23	5.0 ± 0.3	820 ± 60								kcat as percent of that for peptide [1-17]: about 10%
Ac-SNKTRIDEANQRATKML-NH2 [[1-17], S N K T R I D E A N Q R A T K M L]			47 ± 2	1700 ± 100	41	10	8	7.6 ± 0.3	1.0	590	47	
Ac-SNKTRIDEANQRATKM-NH2 [[1-16], S N K T R I D E A N Q R A T K M]	excellent substrate	.17	6 ± 4	1600 ± 100								
CC[C@H](NC(=O)[C@H](CCCNC(=N)N)NC(=O)[C@H](CC(N)=O)NC(=O)[C@H](CO)NC(C)=O)C(=O)N[C@@H](CCCNC(=N)N)C(=O)N[C@H](C(=O)N[C@@H](CC(=O)O)C(=O)N[C@@H](CCC(=O)O)C(=O)N[C@@H](C)C(=O)N[C@@H](CC(N)=O)C(=O)N[C@@H](CCC(N)=O)C(=O)N[C@@H](CCCNC(=N)N)C(=O)N[C@@H](C)C(=O)N[C@H](C(=O)N[C@@H](CCCNC(=N)N)C(=O)N[C@@H](CCSC)C(=O)N[C@@H](CC(C)C)C(N)=O)[C@@H](C)O)[C@@H](C)CC [peptide 3, S N R B R I D E A N Q R A T R M L] (Ac-SNR[Abu]RIDEANQRATRML-NH2)					58	18	16	15.8 ± 0.8	2.1	320	75	Km (read-out: Km In BSA): 910 µM
Ac-SNKTRIDQANQRATKML-NH2 [E8Q, S N K T R I D Q A N Q R A T K M L]	doubling of the rate of hydrolysis	2.08	51 ± 3	750 ± 40								decrease in Km compared with peptide [1-17]: about 50%
Ac-SNRTRIDEANQRATRML-NH2 [peptide 2, S N R T R I D E A N Q R A T R M L]	slightly faster than peptide 1				61	16	11	11.3 ± 0.5	1.5	530	68	Km (read-out: Km In BSA): 1400 µM
CC[C@H](NC(=O)[C@H](CCC(=O)O)NC(=O)[C@H](CC(=O)O)NC(=O)[C@@H](NC(=O)[C@H](CCCNC(=N)N)NC(=O)[C@@H](NC(=O)[C@H](CCCCN)NC(=O)[C@H](CC(N)=O)NC(=O)[C@H](CO)NC(C)=O)[C@@H](C)O)[C@@H](C)CC)C(=O)N[C@@H](CC(N)=O)C(=O)N[C@@H](CCC(N)=O)C(=O)N[C@@H](CCCNC(=N)N)C(=O)N[C@@H](C)C(=O)N[C@H](C(=O)N[C@@H](CCCCN)C(=O)N[C@@H](CCSC)C(=O)N[C@@H](CC(C)C)C(N)=O)[C@@H](C)O [A9B, S N K T R I D E B N Q R A T K M L] (Ac-SNKTRIDE[Abu]NQRATKML-NH2)	still a good substrate		11 ± 1	1100 ± 100								decrease in kcat compared with peptide [1-17]: about 75%
CC[C@H](NC(=O)[C@H](C)NC(=O)[C@H](CCCNC(=N)N)NC(=O)[C@H](CCC(N)=O)NC(=O)[C@H](CC(N)=O)NC(=O)[C@H](C)NC(=O)[C@H](CCC(=O)O)NC(=O)[C@H](CC(=O)O)NC(=O)[C@@H](NC(=O)[C@H](CCCNC(=N)N)NC(=O)[C@@H](NC(=O)[C@H](CCCCN)NC(=O)[C@H](CC(N)=O)NC(=O)[C@H](CO)NC(C)=O)[C@@H](C)O)[C@@H](C)CC)C(=O)N[C@@H](CCCCN)C(=O)N[C@@H](CCSC)C(=O)N[C@@H](CC(C)C)C(N)=O [T14B, S N K T R I D E A N Q R A B K M L] (Ac-SNKTRIDEANQRA[Abu]KML-NH2)	good substrate	1.20	35 ± 2	1300 ± 100								
CC[C@H](NC(=O)[C@H](CC(=O)O)NC(=O)[C@@H](NC(=O)[C@H](CCCNC(=N)N)NC(=O)[C@H](CC)NC(=O)[C@H](CCCNC(=N)N)NC(=O)[C@H](CC(N)=O)NC(=O)[C@H](CO)NC(C)=O)[C@@H](C)CC)C(=O)N[C@@H](C)C(=O)N[C@@H](CC(N)=O)C(=O)N[C@@H](CCC(N)=O)C(=O)N[C@@H](CCCNC(=N)N)C(=O)N[C@@H](C)C(=O)N[C@H](C(=O)N[C@@H](CCCNC(=N)N)C(=O)N[C@@H](CCSC)C(=O)N[C@@H](CC(C)C)C(N)=O)[C@@H](C)O [peptide 6, S N R B R I D B A N Q R A T R M L] (Ac-SNR[Abu]RID[Abu]ANQRATRML-NH2)	more than three times faster				86	25	24	25.3 ± 0.7	3.3	400	89	Km (read-out: Km In BSA): 520 µM
Ac-SNKTRIDEANNRATKML-NH2 [Q11N, S N K T R I D E A N N R A T K M L]	slowed but did not eliminate hydrolysis		19 ± 3	750 ± 80								
Ac-SNKTRIDEANQAATKML-NH2 [R12A, S N K T R I D E A N Q A A T K M L]		< 0.02										
Ac-SNKTRIDEANQRATKAL-NH2 [M16A, S N K T R I D E A N Q R A T K A L]		.38	25 ± 1	1900 ± 100								decrease in kcat compared with peptide [1-17]: ~50%

From patent US5965699A (priority 1996, dated 1999)
